Holding throughout (assay): inhibition of tumour cell growth, NCI panel, 48 h
Assay [1] concerns DU-145 prostate.
Assay [2] relates to HCT-15 colon.
Assay [3] has as its system KM12 colon.
In assay [4] the test system is MDA-N.
Assay [5] concerns NCI-H23 lung.
Assay [6] has as its system NCI-H460 lung.
For assay [7], the system named is NCI/ADR-RES ovarian.
Assay [8] deals with OVCAR-4 ovarian.
Assay [9] has as its system SK-MEL-5 melanoma.
Assay [10] relates to TK-10 renal.

Data on 13 compounds can be found in PubChem BioAssay (NCI).

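1) Cells in 96-well plates. 2) Compound, 48 h, 5 concentrations. 3) Linear interpolation between surrounding doses. 4) Unreached endpoint = highest concentration. TGI denotes the concentration required for complete inhibition of growth.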

As for `Cc1cn([C@@H]2O[C@H](CO[Si](C)(C)C(C)(C)C)[C@]3(O[C@H]3C(=O)NN)[C@H]2O[Si](C)(C)C(C)(C)C)c(=O)[nH]c1=O`, the TGI in assay [1] was 21.8 µM; in assay [2] it was 14.8 µM; in assay [3], 32.6 µM; in assay [4], 13.3 µM; in [5], 30 µM; in assay [6], 15.6 µM. Moreover, the TGI in assay [7] amounted to 33 µM; in assay [8] it was 22.6 µM; in [9] it was 24 µM; in assay [10], 26.9 µM.

On to `C[N+]1(CCCl)CC[N+](C)(CCCl)CC1` (stereo not given), for which the TGI in [1], in assay [2], in assay [3], in [4], in [5] and in assay [6] was more than 100 µM each time. Further, the TGI in assay [7], in [8], in [9] and in assay [10] was more than 100 µM each time.

`CC1=Nc2sc3c(c2C2=NCCN12)CCCC3`: the TGI is more than 100 µM in assay [1]; more than 100 µM in assay [2]; more than 100 µM in assay [3]; 44.2 µM in assay [4]; 46.3 µM in assay [5]; 39 µM in assay [6]. Also, the TGI in [7] is 54.4 µM; in [8], more than 100 µM; in [9], 77.4 µM; in assay [10] it was more than 100 µM.

For `O=C(O)/C(Cc1ccc([N+](=O)[O-])cc1)=N\O`, the TGI in [1], in assay [2], in [3], in assay [4], in assay [5] and in [6] was more than 100 µM in each case. The TGI in assay [7], in assay [8], in assay [9] and in [10] was more than 100 µM each time.

Turning to `O=[N+]([O-])c1ccc(C=NCC2CCCN3CCCCC23)cc1` (stereo not given), the TGI in [1], in [2], in [3], in [4], in [5] and in [6] was more than 100 µM in each case. Further, the TGI in assay [7], in [8], in [9] and in assay [10] was more than 100 µM throughout.

On to `Cc1cc(S(=O)(=O)Nc2nc(N)nc(N(C)C)n2)c(SCC(=O)O)cc1Cl`, for which the TGI in [1], in [2], in [3], in assay [4], in assay [5] and in assay [6] was more than 10 µM in each case. Besides, the TGI in assay [7], in [8], in [9] and in [10] was more than 10 µM throughout.

Turning to `O=C1OC(=O)c2cc(S(=O)(=O)c3ccc4c(c3)C(=O)OC4=O)ccc21`, the TGI in [1], in assay [2], in [3], in assay [4], in assay [5] and in assay [6] was more than 100 µM each time. Also, the TGI in assay [7], in assay [8], in assay [9] and in [10] was more than 100 µM throughout.

As for `C=C1C(=O)O[C@@H]2C[C@]3(C)CC[C@]4(C)[C@H](CC[C@@H]5[C@@]6(C)CCC(=O)C(C)(C)[C@@H]6CC[C@]54C)[C@H]3[C@H]12`, the TGI was determined as 34.7 µM in assay [1]; 28.1 µM in assay [2]; 42.8 µM in assay [3]; 30.9 µM in [4]; 57.3 µM in assay [5]; 35 µM in [6]. The TGI in assay [7] turned out to be 66.7 µM; in [8] it was 40.1 µM; in assay [9], 25.1 µM; in assay [10] it was 30.3 µM.

In the case of `CCOP(=O)(OCC)C(C#N)Cc1ccco1` (stereo not given), the TGI in assay [1], in assay [2], in [3], in assay [4], in [5] and in [6] was more than 10 µM in each case. In addition, the TGI in assay [7], in assay [8], in [9] and in assay [10] was more than 10 µM throughout.

Take `O=C(N/N=C1/C(=O)c2c3ccccc3cc3cccc1c23)c1ccccc1`: the TGI in assay [1] was more than 56.4 µM; in [2], more than 100 µM; in [3] it was more than 31.6 µM; in [4], more than 100 µM; in assay [5], more than 100 µM; in assay [6] it was more than 100 µM. Further, the TGI was more than 100 µM in assay [7], 44.2 µM in assay [8], more than 63.2 µM in [9] and 78.5 µM in assay [10].

As for `O=C(O)Cc1ccc2[nH]c(O)c(C3=Nc4ccccc4C3=O)c2c1`, the TGI in [1], in assay [2], in [3], in assay [4], in assay [5] and in assay [6] was more than 100 µM each time. The TGI in [7] was more than 100 µM; in assay [8] it was more than 100 µM; in [9] it was 55.6 µM; in assay [10] it was more than 100 µM.

As for `C/C=C/C1OC(O)(C(C)C(O)[C@H](C)C2OC(=O)/C(OC)=C/C(C)=C/[C@@H](C)[C@@H](O)[C@@H](C)C(O)C(C)C/C(C)=C/C=C/C2OC)C[C@@H](OC2CC(O)C(OC(N)=O)C(C)O2)C1C` (stereo not given in full), the TGI in [1] was 16.2 µM; in [2], 13.3 µM; in assay [3], 1.33 µM; in [4], 1.11 µM; in assay [5] it was 15.3 µM; in assay [6], 1.36 µM. Further, the TGI in [7] was more than 68.6 µM; in assay [8] it was 18.9 µM; in [9], less than 0.01 µM; in assay [10], 1.78 µM.

For the compound `COc1c(O)cc2c(c1O)C(=O)/C(=C/c1ccc(O)cc1)CO2`, the TGI in assay [1] was 78.1 µM; in [2], 38.2 µM; in [3], 34.4 µM; in assay [4], more than 100 µM; in [5], more than 100 µM; in [6], more than 100 µM. The TGI in [7] came to 57 µM; in assay [8], 60.7 µM; in assay [9], 59.6 µM; in [10], 85 µM.
